Legend:
Experiment in all cases: Test E greenhouse herbicide test, pre- and postemergence
Type in all cases: in vivo
[1] = system: nightshade (eastern black nightshade, Solanum ptycanthum); conditions: Preemergence
Procedure, shortened: (§1)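 Visual rating vs untreated controls, 0 = no effect, 100 = complete control, after 14–21 d greenhouse. Pre: seeded silt loam treated with surfactant-containing solvent formulation. Post: 1–4-leaf plants (2–18 cm) in peat/vermiculite medium.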

[2] = system: goosegrass (Eleusine indica); conditions: Preemergence
Procedure, shortened: as §1

[3] = system: ragweed (common ragweed, Ambrosia elatior)
Procedure, shortened: as §1

[4] = system: beggarticks (hairy beggarticks, Bidens pilosa)
Procedure, shortened: as §1

[5] = system: momingglory (Ipomoea coccinea); conditions: Preemergence
Procedure, shortened: as §1

[6] = system: horseweed (Conyza canadensis)
Procedure, shortened: as §1

[7] = system: field bindweed (Convolvulus arvensis)
Procedure, shortened: as §1

[8] = system: surinam grass (Brachiaria decumbens); conditions: Preemergence
Procedure, shortened: as §1

[9] = system: Italian ryegrass (Lolium multiflorum)
Procedure, shortened: as §1

[10] = system: waterhemp (common waterhemp, Amaranthus rudis)
Procedure, shortened: as §1

[11] = system: barnyardgrass (Echinochloa crus-galli)
Procedure, shortened: as §1

[12] = system: arrowleaf sida (Sida rhombifolia)
Procedure, shortened: as §1

[13] = 62 g ai/ha, scale 0 to 100 (0 no effect, 100 complete control)
[14] = 125 g ai/ha, scale 0 to 100 (0 no effect, 100 complete control)
[15] = 16 g ai/ha, scale 0 to 100, 0 no effect, 100 complete control
[16] = 31 g ai/ha, scale 0 to 100, 0 no effect, 100 complete control
[17] = 62 g ai/ha, Postemergence, scale 0 to 100 (0 no effect, 100 complete control)
[18] = 62 g ai/ha, Preemergence, scale 0 to 100 (0 no effect, 100 complete control)
[19] = 125 g ai/ha, Postemergence, scale 0 to 100 (0 no effect, 100 complete control)
[20] = 125 g ai/ha, Preemergence, scale 0 to 100 (0 no effect, 100 complete control)
[21] = Postemergence, 16 g ai/ha, visual, scale 0 no effect to 100 complete control
[22] = Postemergence, 31 g ai/ha, visual, scale 0 no effect to 100 complete control
[23] = Preemergence, 16 g ai/ha, scale 0 to 100, 0 no effect, 100 complete control
[24] = Preemergence, 31 g ai/ha, scale 0 to 100, 0 no effect, 100 complete control
[25] = 250 g ai/ha, visual, scale 0 no effect to 100 complete control
[26] = 250 g ai/ha, Postemergence, scale 0 to 100 (0 no effect, 100 complete control)
[27] = Preemergence, 250 g ai/ha, visual, scale 0 no effect to 100 complete control

Question: What does the source list for `Cc1ccc2sc(C)c(-c3c(OC(=O)OC(C)C)c(C)nn(C)c3=O)c2c1` [Compound 66]?
Answer: Plant response rating, Nightshade [1, 13]: 15; Plant response rating, Nightshade [1, 14]: 100; Plant response rating, Nightshade [1, 15]: 0; Plant response rating, Nightshade [1, 16]: 0; Plant response rating, Goosegrass [2, 13]: 10; Plant response rating, Goosegrass [2, 14]: 10; Plant response rating, Goosegrass [2, 15]: 5; Plant response rating, Goosegrass [2, 16]: 5; Plant response rating, Ragweed [3, 17]: 80; Plant response rating, Ragweed [3, 18]: 90; Plant response rating, Ragweed [3, 19]: 90; Plant response rating, Ragweed [3, 20]: 100; Plant response rating, Ragweed [3, 21]: 75; Plant response rating, Ragweed [3, 22]: 80; Plant response rating, Ragweed [3, 23]: 25; Plant response rating, Ragweed [3, 24]: 65; Plant response rating, Beggarticks [4, 17]: 90; Plant response rating, Beggarticks [4, 18]: 95; Plant response rating, Beggarticks [4, 19]: 100; Plant response rating, Beggarticks [4, 20]: 100; Plant response rating, Beggarticks [4, 21]: 75; Plant response rating, Beggarticks [4, 22]: 80; Plant response rating, Beggarticks [4, 23]: 65; Plant response rating, Beggarticks [4, 24]: 70; Plant response rating, Morningglory [5, 13]: 30; Plant response rating, Morningglory [5, 14]: 40; Plant response rating, Morningglory [5, 15]: 0; Plant response rating, Morningglory [5, 16]: 0; Plant response rating, Horseweed [6, 17]: 90; Plant response rating, Horseweed [6, 19]: 90; Plant response rating, Horseweed [6, 21]: 60; Plant response rating, Horseweed [6, 22]: 80; Plant response rating, Field Bindweed [7, 17]: 80; Plant response rating, Field Bindweed [7, 18]: 50; Plant response rating, Field Bindweed [7, 19]: 80; Plant response rating, Field Bindweed [7, 20]: 40; Plant response rating, Field Bindweed [7, 21]: 70; Plant response rating, Field Bindweed [7, 22]: 60; Plant response rating, Field Bindweed [7, 23]: 0; Plant response rating, Field Bindweed [7, 24]: 5; Plant response rating, Surinam Grass [8, 13]: 5; Plant response rating, Surinam Grass [8, 14]: 50; Plant response rating, Surinam Grass [8, 15]: 5; Plant response rating, Surinam Grass [8, 16]: 20; Plant response rating, Ryegrass, Italian [9, 17]: 40; Plant response rating, Ryegrass, Italian [9, 18]: 90; Plant response rating, Ryegrass, Italian [9, 19]: 50; Plant response rating, Ryegrass, Italian [9, 20]: 100; Plant response rating, Ryegrass, Italian [9, 21]: 20; Plant response rating, Ryegrass, Italian [9, 22]: 30; Plant response rating, Ryegrass, Italian [9, 23]: 40; Plant response rating, Ryegrass, Italian [9, 24]: 65; Plant response rating, Waterhemp [10, 17]: 75; Plant response rating, Waterhemp [10, 18]: 80; Plant response rating, Waterhemp [10, 19]: 80; Plant response rating, Waterhemp [10, 20]: 90; Plant response rating, Waterhemp [10, 21]: 70; Plant response rating, Waterhemp [10, 22]: 65; Plant response rating, Waterhemp [10, 23]: 0; Plant response rating, Waterhemp [10, 24]: 65; Plant response rating, Barnyardgrass [11, 17]: 25; Plant response rating, Barnyardgrass [11, 18]: 20; Plant response rating, Barnyardgrass [11, 19]: 20; Plant response rating, Barnyardgrass [11, 20]: 15; Plant response rating, Barnyardgrass [11, 21]: 20; Plant response rating, Barnyardgrass [11, 22]: 15; Plant response rating, Barnyardgrass [11, 23]: 0; Plant response rating, Barnyardgrass [11, 24]: 15; Plant response rating, Arrowleaf Sida [12, 17]: 60; Plant response rating, Arrowleaf Sida [12, 18]: 40; Plant response rating, Arrowleaf Sida [12, 19]: 70; Plant response rating, Arrowleaf Sida [12, 20]: 65; Plant response rating, Arrowleaf Sida [12, 21]: 30; Plant response rating, Arrowleaf Sida [12, 22]: 40; Plant response rating, Arrowleaf Sida [12, 23]: 0; Plant response rating, Arrowleaf Sida [12, 24]: 0

Question: `Cc1ccc2ccccc2c1-c1c(OC(=O)OC(C)C)c(C)nn(C)c1=O` [Compound 72] was tested. Which “Plant response rating, Nightshade” value [1, 13] did it give?
Answer: 80

Question: What about the “Plant response rating, Nightshade” value [1, 14] of the same compound?
Answer: 100

Question: And the “Plant response rating, Nightshade” value [1, 16]?
Answer: 0

Question: What about the “Plant response rating, Nightshade” value [1, 25] of the same compound?
Answer: 100

Question: And the “Plant response rating, Goosegrass” value [2, 13]?
Answer: 40

Question: And the “Plant response rating, Goosegrass” value [2, 14]?
Answer: 60

Question: And the “Plant response rating, Goosegrass” value [2, 16]?
Answer: 20

Question: What about the “Plant response rating, Goosegrass” value [2, 25] of the same compound?
Answer: 80

Question: What about the “Plant response rating, Ragweed” value [3, 17] of the same compound?
Answer: 90

Question: And the “Plant response rating, Ragweed” value [3, 18]?
Answer: 90

Question: And the “Plant response rating, Ragweed” value [3, 19]?
Answer: 90

Question: And the “Plant response rating, Ragweed” value [3, 20]?
Answer: 90

Question: What about the “Plant response rating, Ragweed” value [3, 26] of the same compound?
Answer: 95

Question: What about the “Plant response rating, Ragweed” value [3, 22] of the same compound?
Answer: 85

Question: What about the “Plant response rating, Ragweed” value [3, 24] of the same compound?
Answer: 0

Question: And the “Plant response rating, Ragweed” value [3, 27]?
Answer: 100

Question: What about the “Plant response rating, Beggarticks” value [4, 17] of the same compound?
Answer: 100

Question: What about the “Plant response rating, Beggarticks” value [4, 18] of the same compound?
Answer: 80

Question: And the “Plant response rating, Beggarticks” value [4, 19]?
Answer: 98

Question: What about the “Plant response rating, Beggarticks” value [4, 20] of the same compound?
Answer: 98

Question: And the “Plant response rating, Beggarticks” value [4, 26]?
Answer: 98

Question: What about the “Plant response rating, Beggarticks” value [4, 22] of the same compound?
Answer: 90

Question: What about the “Plant response rating, Beggarticks” value [4, 24] of the same compound?
Answer: 70

Question: And the “Plant response rating, Beggarticks” value [4, 27]?
Answer: 100

Question: What about the “Plant response rating, Morningglory” value [5, 13] of the same compound?
Answer: 30

Question: And the “Plant response rating, Morningglory” value [5, 14]?
Answer: 80

Question: What about the “Plant response rating, Morningglory” value [5, 16] of the same compound?
Answer: 20

Question: And the “Plant response rating, Morningglory” value [5, 25]?
Answer: 95

Question: And the “Plant response rating, Horseweed” value [6, 17]?
Answer: 60

Question: What about the “Plant response rating, Horseweed” value [6, 18] of the same compound?
Answer: 100

Question: And the “Plant response rating, Horseweed” value [6, 19]?
Answer: 75

Question: And the “Plant response rating, Horseweed” value [6, 20]?
Answer: 100

Question: What about the “Plant response rating, Horseweed” value [6, 26] of the same compound?
Answer: 70

Question: What about the “Plant response rating, Horseweed” value [6, 22] of the same compound?
Answer: 60

Question: And the “Plant response rating, Horseweed” value [6, 24]?
Answer: 0

Question: What about the “Plant response rating, Horseweed” value [6, 27] of the same compound?
Answer: 100

Question: What about the “Plant response rating, Field Bindweed” value [7, 17] of the same compound?
Answer: 80

Question: What about the “Plant response rating, Field Bindweed” value [7, 18] of the same compound?
Answer: 0

Question: What about the “Plant response rating, Field Bindweed” value [7, 19] of the same compound?
Answer: 95

Question: And the “Plant response rating, Field Bindweed” value [7, 20]?
Answer: 65

Question: And the “Plant response rating, Field Bindweed” value [7, 26]?
Answer: 90

Question: What about the “Plant response rating, Field Bindweed” value [7, 22] of the same compound?
Answer: 70

Question: What about the “Plant response rating, Field Bindweed” value [7, 24] of the same compound?
Answer: 0

Question: And the “Plant response rating, Field Bindweed” value [7, 27]?
Answer: 90

Question: And the “Plant response rating, Surinam Grass” value [8, 13]?
Answer: 40

Question: What about the “Plant response rating, Surinam Grass” value [8, 14] of the same compound?
Answer: 75

Question: And the “Plant response rating, Surinam Grass” value [8, 16]?
Answer: 5

Question: What about the “Plant response rating, Surinam Grass” value [8, 25] of the same compound?
Answer: 90

Question: And the “Plant response rating, Ryegrass, Italian” value [9, 17]?
Answer: 80

Question: And the “Plant response rating, Ryegrass, Italian” value [9, 18]?
Answer: 90

Question: And the “Plant response rating, Ryegrass, Italian” value [9, 19]?
Answer: 85

Question: And the “Plant response rating, Ryegrass, Italian” value [9, 20]?
Answer: 100

Question: And the “Plant response rating, Ryegrass, Italian” value [9, 26]?
Answer: 90

Question: What about the “Plant response rating, Ryegrass, Italian” value [9, 22] of the same compound?
Answer: 80

Question: What about the “Plant response rating, Ryegrass, Italian” value [9, 24] of the same compound?
Answer: 90

Question: What about the “Plant response rating, Ryegrass, Italian” value [9, 27] of the same compound?
Answer: 100

Question: And the “Plant response rating, Waterhemp” value [10, 17]?
Answer: 65

Question: What about the “Plant response rating, Waterhemp” value [10, 18] of the same compound?
Answer: 100

Question: And the “Plant response rating, Waterhemp” value [10, 19]?
Answer: 80

Question: What about the “Plant response rating, Waterhemp” value [10, 20] of the same compound?
Answer: 100

Question: What about the “Plant response rating, Waterhemp” value [10, 26] of the same compound?
Answer: 90

Question: And the “Plant response rating, Waterhemp” value [10, 22]?
Answer: 65

Question: And the “Plant response rating, Waterhemp” value [10, 24]?
Answer: 90

Question: And the “Plant response rating, Waterhemp” value [10, 27]?
Answer: 100

Question: What about the “Plant response rating, Barnyardgrass” value [11, 17] of the same compound?
Answer: 40

Question: What about the “Plant response rating, Barnyardgrass” value [11, 18] of the same compound?
Answer: 30

Question: What about the “Plant response rating, Barnyardgrass” value [11, 19] of the same compound?
Answer: 40

Question: And the “Plant response rating, Barnyardgrass” value [11, 20]?
Answer: 50

Question: What about the “Plant response rating, Barnyardgrass” value [11, 26] of the same compound?
Answer: 50

Question: What about the “Plant response rating, Barnyardgrass” value [11, 22] of the same compound?
Answer: 30

Question: And the “Plant response rating, Barnyardgrass” value [11, 24]?
Answer: 0

Question: And the “Plant response rating, Barnyardgrass” value [11, 27]?
Answer: 50

Question: And the “Plant response rating, Arrowleaf Sida” value [12, 17]?
Answer: 75

Question: What about the “Plant response rating, Arrowleaf Sida” value [12, 18] of the same compound?
Answer: 35

Question: What about the “Plant response rating, Arrowleaf Sida” value [12, 19] of the same compound?
Answer: 80

Question: What about the “Plant response rating, Arrowleaf Sida” value [12, 20] of the same compound?
Answer: 85

Question: And the “Plant response rating, Arrowleaf Sida” value [12, 26]?
Answer: 90

Question: And the “Plant response rating, Arrowleaf Sida” value [12, 22]?
Answer: 70

Question: What about the “Plant response rating, Arrowleaf Sida” value [12, 24] of the same compound?
Answer: 20

Question: And the “Plant response rating, Arrowleaf Sida” value [12, 27]?
Answer: 65

From patent publication US10597388B2, “Pyridazinone herbicides” (FMC CORPORATION, priority 2014, dated 2020)
